Results as given in patent publication US20020199220A1, “Methods to propagate plants via somatic embryogenesis and to transfer genes into ornamental statice and other members of the family plumbaginaceae” (priority 2001, published 2002).
Values joined by “and” are separate entries in the source; they are usually repeats but may differ in a detail not shown here. Equal values may be shown once.

How the values were obtained:
Type in all cases: cell-based
[1] = test system: L. bellidifolium cotyledon explants; experiment: Induction of embryogenic calli from cotyledon explants; details: for Callus Description / % Response / Number of Explants responded/cultured: MS medium with 1 mg/l 2,4-D, 0.1 mg/l kinetin; for Callus Description / % Response: 30 days after culture; for % Response: mean of experiments; for Number of Explants responded/cultured: scored 30 days after culture, Exp.1 to 3
Procedure: (§1) Seeds of perennial statice Limoniurn bellidifolium (Gouan) Durmort.(Statice caspia Willd.) and annual statice Linonium sinuatum (L.) Mill. Cv. Soiree, and other Limonium species were purchased from Park Seed Co. (Greenwood, S.C., U.S.A.). Seeds were surface-sterilized by rinsing in 70% (v/v) ethanol for 30 seconds and in 10% (v/v) commercial bleach for 10 minutes. Following this treatment, they were washed five times in sterile distilled water and germinated under light on half-strength Murashige and Skoog basal medium (MS, Murashige and Skoog, 1962) containing 1.5% (wt./v) sucrose and 0.8% (wt./v) agar (Agar-agar, Sigma, St. Louis, Mo., U.S.A.). The pH was adjusted to 5.8 prior to autoclaving for 5 days to provide the explants.
(§2) Cotyledon and hypocotyl explants were dissected from 5-day old seedlings. The hypocotyls were cut 1 mm below the cotyledonary node and 1 mm above the hypocotyl-root junction to provide 2 mm-long explants. The cotyledons were separated from the cotyledon-petiole junction and halved into 2 to 3 mm long pieces. The explants were cultured, 10 per 100×15 mm Petri plate, on MS medium containing MS mineral salts, B5 vitamins (Gamborg et al. 1968), sucrose (2, 3 or 4% wt./v), 0.1 mg.l^−1 kinetin and 1, 2 or 5 mg.l^−1 2,4-D, pH 5.8. The plates were sealed with parafilm (American National Can, WI) and incubated at 25° C. under 16/8 h (day/night) light regime (PPFD 46 μmol.quanta.m^−2.s^−1, cool white fluorescent lamps). The explants were subcultured every two weeks on the same media.
(§3) Cotyledon explants from L. bellidifolium and L. sinuatum initiated callus within 7-10 days in culture on media containing 1 mg.l^−1 2,4-D and various levels of sucrose. Embryogenic callus was characterized by globular structures, smooth and shiny texture and creamy color. On media containing 1 mg.l^−1 2,4-D and 0.1 mg.l^−1 kinetin, increasing sucrose concentrations increased the induction of well developed embryogenic calli, 4% sucrose being the optimum (see the following Table 1). Some of the cotyledon explants respond with direct somatic embryogenesis without a callus phase. The embryogenic calli produced repetitive globular embryos on the same induction media for both species. Medium containing 4% sucrose was also optimum to induce embryogenic calli from hypocotyl explants (79% response for 28 explants cultured for L. bellidifolium and 86% response for 21 explants cultured for L. sinuatum). On an average, 2-3 somatic embryos developed per explant weekly. At 2% sucrose, friable non-embryogenic callus grew along with less defined embryogenic calli on the same explant.

[2] = test system: L. sinuatum cotyledon explants; experiment: as above; details: for Callus Description / % Response / Number of Explants responded/cultured: MS medium with 1 mg/l 2,4-D, 0.1 mg/l kinetin; for Callus Description / % Response: 30 days after culture; for % Response: mean of experiments; for Number of Explants responded/cultured: scored 30 days after culture, Exp.1 to 3
Procedure: as §1, §2, §3

[3] = test system: somatic embryos from embryogenic calli derived from L. bellidifolium and L. sinuatum cotyledon and hypocotyl explants; experiment: Maturation and germination of somatic embryos from cultured embryogenic calli; parameters: key to Germination: − = No response; + slow (21-30 days); ++ medium (15-20 days); ++++- Fast (14 days) with 100% maturation and germination; details: for somatic embryo morphology: no growth regulators; for Germination / Maturation: MS medium
Procedure: For maturation, somatic embryos at late-globular, heart and torpedo stages were subcultured on MS media containing 3% or 4% (wt./v) sucrose with or without 0.1 mg.l^−1 kinetin. Calli differentiating globular embryos were transferred to maturation medium, MS supplemented with 3 or 4% sucrose and 0 or 0.1 mg.l^−1 kinetin. Late globular, heart, torpedo and cotyledonary stages differentiated in these media and with faster and higher response on media with 4% sucrose compared to that on 3% sucrose (see Table 2).
Supplementation of this medium with 0.1 mg/l kinetin induced embryo maturation and germination within 10 to 14 days of subculture compared to more than 21 days on media lacking kinetin.

[4] = test system: L. bellidifolium hypocotyl explants; experiment: Induction of embryogenic calli from hypocotyl explants; details: medium containing 4% sucrose; 28 explants cultured
Procedure: as §2
(§4) Cotyledon explants from L. bellidifolium and L. sinuatum initiated callus within 7-10 days in culture on media containing 1 mg.l^−1 2,4-D and various levels of sucrose. Embryogenic callus was characterized by globular structures, smooth and shiny texture and creamy color. On media containing 1 mg.l^−1 2,4-D and 0.1 mg.l^−1 kinetin, increasing sucrose concentrations increased the induction of well developed embryogenic calli, 4% sucrose being the optimum (see the following Table 1). Some of the cotyledon explants respond with direct somatic embryogenesis without a callus phase. […]

[5] = test system: L. sinuatum hypocotyl explants; experiment: as above; details: medium containing 4% sucrose; 21 explants cultured
Procedure: as §2, §4

[6] = media containing 1 mg/l 2,4-D and various levels of sucrose

## O=C(O)COc1ccc(Cl)cc1Cl [2,4-D, reference compound]
[1]; [6]
  time to callus initiation in culture: 7 to 10 days
[2]; [6]
  time to callus initiation in culture: 7 to 10 days

## OC[C@H]1O[C@@](CO)(O[C@H]2O[C@H](CO)[C@@H](O)[C@H](O)[C@H]2O)[C@@H](O)[C@@H]1O [sucrose]
[3]; 3% sucrose
  somatic embryo morphology: abnormally long roots with poor shoot development
[3]; 3% sucrose, kinetin 0.0 mg/l
  Germination: −
  Maturation: + (+ slow (21-30 days))
[3]; 3% sucrose, kinetin 0.1 mg/l
  Germination: ++ (++ medium (15-20 days))
  Maturation: ++ (++ medium (15-20 days))
[3]; 4% sucrose, kinetin 0.0 mg/l
  Germination: + (+ slow (21-30 days))
  Maturation: ++ (++ medium (15-20 days))
[3]; 4% sucrose, kinetin 0.1 mg/l
  Germination: ++++ (++++- Fast (14 days) with 100% maturation and germination)
  Maturation: ++++ (++++- Fast (14 days) with 100% maturation and germination)
[3]; sucrose increased to 4%
  somatic embryo morphology: inhibited this abnormal rooting
[4]
  response (induction of embryogenic calli): 79%
[5]
  response (induction of embryogenic calli): 86%
[1]; 2% sucrose
  Callus Description: W,E,F
  % Response: 75%
  Number of Explants responded/cultured: 15/24 and 23/28 and 53/67
[1]; 3% sucrose
  Callus Description: W/G,E(g,t)
  % Response: 79%
  Number of Explants responded/cultured: 46/58 and 53/62 and 48/68
[1]; 4% sucrose
  Callus Description: W/G,E(g,h,t)
  % Response: 89%
  Number of Explants responded/cultured: 29/32 and 1/26 and 39/41
[2]; 2% sucrose
  Callus Description: W,E,F
  % Response: 72%
  Number of Explants responded/cultured: 12/19 and 38/44 and 13/20
[2]; 3% sucrose
  Callus Description: W/G,B(g,t)
  % Response: 79%
  Number of Explants responded/cultured: 50/61 and 49/74 and 61/69
[2]; 4% sucrose
  Callus Description: W/G,B(g,h,t)
  % Response: 88%
  Number of Explants responded/cultured: 42/48 and 32/39 and 37/40
